Values joined by “and” are separate entries in the source; they are usually repeats but may differ in a detail not shown here. Equal values may be shown once. “Also recorded” adds a separate entry of the source. Where a name gives a salt, the structure may show the parent alone. Read-outs that look alike come from different tables or passages of the source.
Tests used:
[1] = test system: 6-OHDA mouse model; experiment: Rotarod test, unilateral striatal 6-OHDA mice (Example 5); format: in vivo
[2] = test system: mouse; conditions: cited from earlier work
[3] = test system: rat; conditions: cited from earlier work
[4] = test system: 6-OHDA treated zebrafish larvae; experiment: Co-administration with L-Dopa, total distance 6-OHDA larvae move; format: in vivo; conditions: hydrochloride; for Effect of co-administration with L-Dopa on locomotor recovery: total distance, L-Dopa 250 or 125 μM
[5] = cited from earlier work
[6] = test system: 6-OHDA mouse model; experiment: Abnormal involuntary movements, 6-OHDA mice (Example 5); format: in vivo; conditions: 28 days post injection; 30 and 90 minutes after treatment
Description: This condition results in a range of involuntary movements that can be evaluated by video tracking analyses. […] Evaluations were performed during two independent trials, 30 and 90 minutes after treatment administration. […] Nonetheless, forelimb and orofacial involuntary movements are extremely hard to detect, and reading errors occur, considering the size of the animals. Total abnormal involuntary movements are the sum of all 4 different involuntary movements evaluated and is the parameter often reported in the literature.
As FIGS. 17A-17F show, abnormal involuntary movements were evaluated using the cylinder test 28 days post injection. […] Values mean ě SEM (n=5-8).

[7] = test system: 6-OHDA treated zebrafish larvae; experiment: Rescue of Tyrosine hydroxylase (TH)-positive dopaminergic neurons in 6-OHDA zebrafish larvae; format: in vivo
Description: The 7 candidates also were tested in terms of rescue of dopaminergic neurons positive for Tyrosine hydroxylase (Th) in the substancia nigra pars compacta of the test animals. […] Results were normalized for healthy control values (healthy control=100% of neurons). As a control, zebrafish were treated with only the vehicle, ascorbic acid. ‘6-OHDA_ represents results in zebrafish receiving no treatment.
FIGS. 6E-6G show representative Z-projections of confocal stacks of whole-mount anti-TH immunohistochemistry in 6 days post-fertilization (dpf) of zebrafish larvae (age of the fish) control (FIG. 6E), 6-OHDA (FIG. 6F), and tapentadol treated-larvae (FIG. 6G).

[8] = test system: healthy wild type mice; experiment: Toxicity assay, open field test in healthy wild type mice (Example 6); format: in vivo, mouse; conditions: 1 h after i.p.; tapentadol C1 8.3 mg/kg in combination with L-Dopa 18 mg/kg
Excerpt: Necropsy was done after cervical dislocation. […] Saline was given to the control group.

[9] = test system: 6-OHDA mouse model; experiment: Abnormal involuntary movements (AIMs), 6-OHDA mice, ON/OFF L-Dopa study (Example 7)
Description: The unilateral striatal 6-OHDA mice model was used in this study. Specifically, 12 week old CD-1 male mice received an injection of 6-OHDA neurotoxin at the following coordinates: AP +0.9 mm, ML +2.0 mm, DV −3.2 mm, as in the Example outlined above. Animals were injected with 10 ? g of 6-OHDA or ascorbic acid (vehicle control) to induce the disease. Disease was induced for 7 days and treatment then was initiated at this time point.
The following parameters were evaluated: hyperkinetic and/or dystonic movements of the contralateral forelimb on the sagittal or frontal plane (forelimb involuntary movements; FIG. 29A), twisted posture of the neck and upper body towards the side contralateral to the lesion (upper body involuntary movements; FIG. 29B), twitching of orofacial muscles, empty jaw movements and contralateral tongue protrusion (orofacial involuntary movements; FIG. 29C), circular locomotion with contralateral side bias (circular involuntary movements; FIG. 29D), total involuntary movements (FIG. 29E), and total involuntary movement along the different timepoints (FIG. 29F). […] Total abnormal involuntary movements (FIGS. […]) were the sum of all 4 different involuntary movements evaluated.
The same parameters were analyzed as for 20 days post injection (dpi).

[10] = test system: rabbit; conditions: oral administration; cited from earlier work
[11] = cited from earlier work; remark: listed apart in the source
[12] = cited from earlier work; remark: listed apart in the source
[13] = test system: 6-OHDA treated zebrafish larvae; experiment: Freezing (duration of freezing periods, light/dark stimulus) in 6-OHDA zebrafish larvae; format: in vivo; conditions: tapentadol 48.5, stavudine 50, nabumetone 0.91 μM; L-Dopa treatment
Description: In the zebrafish model, the locomotor impairment was measured and related with bradykinesia in patients. Tests included evaluating ‘freezing_ in response to a light/dark stimulus. 6-OHDA induced larvae had fewer freezing episodes but spent longer periods in the frozen state. In previous studies, the duration of freezing episodes has been analyzed in PD patients. […] Nonetheless, it is an inhibitor of the neuronal dopamine transporter and since 6-OHDA needs DAT to enter the neuron and induce the disease, methylphenidate may be a false positive.
As FIGS. 9B-9C show, freezing recovery was tested using 7 candidate molecules at optimal concentrations, in an exemplary experiment with n=8 fish, and methylphenidate and amantadine at 25 ? M.

[14] = test system: healthy wild type mice; experiment: Toxicity assay, welfare and necropsy (Example 6); conditions: 24 h
Description: Their behavior was evaluated with open field tests for 1 h after i.p. injection. After 24 h, animals were sacrificed and necropsy was performed
9 week old NMRI female mice were used for this assay. Animals were tested for their welfare after two intraperitoneal injections of the test agents using the open field test. Necropsy was done after cervical dislocation. […] Benserazide at 12 mg/kg was administered 30 minutes prior to administration of these compounds, in all groups. Saline was given to the control group.
After benserazide administration, animals were monitored in the open field for 30 minutes for habituation. […] 24 hours after administration of the compounds, the animals were sacrificed and necropsy performed.
For administration of the various agents to the animals, two 700 ? L injections were administered 30 minutes apart.

[15] = IV, rats; cited from earlier work
[16] = test system: 6-OHDA mouse model; experiment: Cylinder test, 6-OHDA mice (Example 5); format: in vivo

CC[C@@H](c1cccc(O)c1)[C@@H](C)CN(C)C [tapentadol, tapentadol hydrochloride]
Rotarod: latency to fall and speed, recovery ([1]; C1 2.8 mg/kg/day i.p., 8 and 15 days post lesion): best recovery between groups, although not significant
Rotarod: latency to fall and speed, recovery ([1]; daily i.p., dosages tested (C1 and C2)): behavioral recovery over time
LD50 ([2]; intravenous administration, mice): 47 mg/kg
LD50 ([2]; oral administration, mouse): 300 mg/kg
LD50 ([2]; oral, mice): 300 to 350 mg/kg
LD50 ([3]; intravenous administration, rats): 45 mg/kg
LD50 ([3]; oral administration, rat): 980 mg/kg
Tapentadol w L-Dopa: effectiveness with L-Dopa 250 relative to 125 ([4]; co-administration with L-Dopa 250 vs 125, listed as Tapentadol HCl): less and equally
Effect of co-administration with L-Dopa on locomotor recovery ([4]; listed as Tapentadol): not affected
Effect of co-administration with L-Dopa on locomotor recovery ([4]; listed as tapentadol hydrochloride): the same or improved
Plasma protein binding ([5]; all species tested including humans): 15-20%
Plasma protein binding ([5]; plasma): approximately 20%
Induction of abnormal involuntary movements [6]: None of the treatments, tapentadol or stavudine of the combination, induced involuntary movements
Neurorescue ([7]; TH+ neurons at optimal dose, p): Confirmed p < 0.055
Neuroprotective effect / recovery of TH+ neurons ([7]; at the optimal concentration of each molecule, hydrochloride): confirmed; also recorded: recovery was observed
Open field behavior (velocity, distance, time resting/moving) [8]: slightly different behavior in three out of the four parameters analyzed
Induction of abnormal involuntary movements ([9]; L-Dopa treated groups vs tapentadol hydrochloride alone): did not; also recorded: does not induce AIMs
Effect on L-Dopa induced AIMs / dyskinesia ([9]; concomitant administration with L-Dopa, hydrochloride): not reverted; also recorded: did not revert L-Dopa induced AIMs; also recorded: did not increase dyskinesia
LD50 [10]: 3,200 mg/kg
Absorption after oral administration ([11]; dog, mice, and rats): completely absorbed
Bioavailability ([11]; dogs and rats): low
Placenta-blood barrier crossing ([11]; in vivo): crosses the placenta-blood barrier, but to a lesser extent
Dose with exaggerated pharmacological effects ([12]; 52-week dog study, oral dosing): 30 mg/kg
Dose groups with QT prolongation ([12]; dogs, hydrochloride): 80 mg/kg and 120 mg/kg
Duration of freezing periods, recovery vs 6-OHDA treated larvae [13]: not recovered
Necropsy findings ([14]; tapentadol C1 8.3 mg/kg in combination with L-Dopa): Two of the three animals treated with tapentadol C1 concentration had a slight hyperemia in the small intestine
Necropsy findings ([14]; tapentadol C3 15 mg/kg in combination with L-Dopa): One of the three animals treated with tapentadol C3 concentration had an intestinal congestion
Dose with suspected proconvulsion effect [15]: 6 mg/kg
Cylinder test: recovery over the parameters analyzed ([16]; concentration 1 (2.8 mg/kg/day), hydrochloride, 2.8 mg/kg/day): showed a recovery; also recorded: strongest recovery
Cylinder test: recovery over the parameters analyzed ([16]; concentration 2 (0.9 mg/kg/day)): did not show significant recovery
